Test results: patent publication US20070299114A1, “Biaryl Derivatives” (Shionogi & Co., Ltd., priority 2004, published 2007)
pIC50: −log10 of the molar value.

How the values were obtained:
[1] = molecular target: T1, dihydrooroate dehydrogenase (Homo sapiens, UniProt Q02127); assay: dihydroorotate dehydrogenase inhibition, U-937 mitochondrial/microsomal fraction, DCIP absorbance at 620 nm; assay type: biochemical; details: DHODH of human U-937 cell mitochondrial/microsomal fraction; 37° C., 120 minutes
T1 construct: ultracentrifugation at 4° C. and 120,000×g for 60 minutes afforded a mitochondrial/microsomal fraction; endogenous in cells; host or cells: U-937 (human histiocytic lymphoma cell line), mitochondrial/microsomal fraction
T1 sequence (Q02127 whole entry): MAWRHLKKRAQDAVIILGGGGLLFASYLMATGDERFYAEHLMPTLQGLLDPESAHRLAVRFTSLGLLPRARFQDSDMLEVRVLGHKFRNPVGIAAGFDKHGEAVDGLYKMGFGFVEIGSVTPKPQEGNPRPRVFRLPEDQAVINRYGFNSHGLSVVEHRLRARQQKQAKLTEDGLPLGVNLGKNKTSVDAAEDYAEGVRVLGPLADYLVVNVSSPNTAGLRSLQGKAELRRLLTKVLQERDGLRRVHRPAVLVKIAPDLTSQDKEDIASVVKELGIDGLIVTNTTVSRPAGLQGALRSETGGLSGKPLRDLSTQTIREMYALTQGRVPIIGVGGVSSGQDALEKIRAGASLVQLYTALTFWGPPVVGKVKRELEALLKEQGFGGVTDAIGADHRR
Method: Method of Testing dihydrooroate dehydrogenase Inhibition
Human U-937 cell (human histiocytic lymphoma cell line) was sonicated in a homogenizing buffer (20 mM Tris-HC1, pH 7.4, containing 2 mM EDTA and protease inhibitor cocktail), and this was centrifuged at 4° C. and 1,200×g for 15 minutes to remove cell debris. Further, ultracentrifugation at 4° C. and 120,000×g for 60 minutes afforded a mitochondrial/microsomal fraction. The resulting fraction was quantitated for a protein, and prepared to 10 mg/ml, which was freezing-stored in a −40° C. in a refrigerator until measurement. To 150 μl of the reaction solution (50 mM Tris-HC1, pH 7.4, containing 0.1% Triton X-100, 1 mM KCN, 100 μM coenzyme Q10, 200 μM DCIP), were added 10 μl of a dilution series of the compound and 0.2 mg of a mitochondrial/microsomal fraction, followed by pre-incubation at 37° C. for 30 minutes. Then, 20 μl of a 5 mM DHO solution (final concentration […]), which is a substrate, was added, this was incubated at 37° C. for 120 minutes, and an absorbance at a measurement wavelength of 620 nm was measured. A rate of suppression of a compound at each concentration relative to a change in an absorbance due to the enzyme reaction was obtained, and a concentration indicating 50% inhibition (IC50 value) was calculated to assess the inhibition activity of the compound.

Human lymphocyte = assay: suppression of IgE antibody production in human lymphocyte stimulated with anti-human CD40 antibody and IL-4; assay type: cell-based; details: 216 h; IgE antibody production by human lymphocyte, anti-human CD40 antibody + IL-4, cultured for 9 days, ELISA
Method: Effect of Suppressing Antibody Production Using Human Lymphocyte
1) Human Peripheral Blood
Human peripheral blood was collected with a plastic syringe containing heparin (final concentration 1.5%) from a vein of an adult healthy person, and subjected to collection of lymphocyte immediately after blood collection.
To the RPMI medium (Sigma) were added 10% of fetal bovine serum, (HyClone Lab.) which had been immobilized at 56° C. for 30 minutes, penicillin (100 units/ml) and streptomycin (100 μg/ml) (Invitrogen), which was used.
The present compound was dissolved in dimethyl sulfoxide (Nakalai Tesque) to 2 mg/ml and, thereafter, the solution was diluted with a medium to a final concentration of 0.01 pg/ml to 10 μg/ml.
Human peripheral blood was mixed with an equal amount of PBS-10 mM EDTA, 10 ml of this was overlaid on a tube containing 3 ml of Ficoll-Paque Plus (Pharmacia Biotech), followed by centrifugation at room temperature and 300×g for 30 minutes to obtain a lymphocyte layer. The collected cell suspension was centrifugation-washed with a sterilized Hanks's balanced salt solution (Invitrogen), passed through a nylon mesh, and centrifugation-washed with a medium, which was used in an experiment as human lymphocyte.
5) Inducement of IgE Antibody Production Due to B cell Stimulation
Human lymphocyte was seeded on a 96-well culturing plate (Sumitomo Bakelite) to 2×10^5 cells per well, and the compound, an anti-human CD40 antibody (Pharmingen, 2 μg/ml), and human recombinant interleukin-4 (IL-4) (PEPROTECH, 0.1 μg/ml) were added, followed by culturing at 37° C. under the presence of 5% CO2 (0.2 ml/well). After cultured for 9 days, an amount of an antibody produced in the supernatant was quantitated by a specific ELISA method.
6) Quantitation of IgE Antibody
For quantitating IgE, a commercially available kit, MESACUP IgE Test (Medical & Biological Laboratories Co., Ltd.) was used. An experimental method was according to the manual, an experiment was performed duplicately, and an average was obtained.

anti-OVA IgE antibody = assay: suppression of IgE antibody production to anti-ovalbumin (OVA) in immunized mice, PCA titer; assay type: in vivo; details: dose 10 mg/kg orally for consecutive 10 days; anti-OVA IgE antibody value (PCA titer, Log2 of maximum serum dilution rate) in BALB/c mice
Method: Effect of Suppression of IgE Antibody Production to Anti-Ovalbumin (OVA)
BALB/c mice (female, 8 to 10 week old) purchased from Japan Charles River (Kanagawa) and Wistar rats (female, 8 to 10 week old) purchased from Japan SLC (Sizuoka) were used.
BALB/c mice were immunized by intraperitoneally injecting 0.2 ml of a solution obtained by suspending 2 μg of ovalbumin (OVA) and an aluminum hydroxide gel (1 mg) in a brine. After ten days, blood was taken from a heart, the serum was separated, and an IgE antibody value was measured.
[…] Administration was performed from immunization date to the day before blood collection for consecutive 10 days.
4) Measurement of Anti-OVA IgE Antibody Value (PCA Titer)
The resulting mouse serum was prepared into a 2-fold dilution series with a brine, and each 50 μl of this was subcutaneously injected into a back of a pre-shaved Wistar rat. After 24 hours, 0.5 ml of a brine containing 1 mg of OVA and 5 mg of an Evans Blue dye was intravenously injected to induce a passive skin anaphylactic reaction (PCA).

Compound	pIC50 [1]	also measured
C/C(=C\c1c(C)c(C)c(-c2ccc3[nH]ccc3c2)c(C)c1C)C(=O)NC1CC1 [Compound 417]	8.17	
COc1cc(-c2ccc(NCc3ccco3)cc2F)c(OC)cc1/C=C(\C)C(=O)NC(C)C [Compound 27]	8.11	
C/C(=C\c1c(C)c(C)c(-c2ccc(NC(C)C)cc2)c(C)c1C)C(=O)NC(C)C [Compound 415]	8.21	
COc1c(C)c(-c2ccc(NC3CCCCC3)cc2)c(OC)c(C)c1/C=C(\C)C(=O)O [Compound 559]		IC50 (Human lymphocyte): 0.0072 µg/mL; PCA (anti-OVA IgE antibody): 4
C/C(=C\c1cc(C)c(-c2ccc(NC(C)C)cc2F)cc1C)C(=O)N[C@H](C)C(=O)O [Compound 349]	8.05	
C/C(=C\c1c(C)c(C)c(-c2ccc(NC(C)C)cc2F)c(C)c1C)C(=O)NS(=O)(=O)c1ccccc1 [Compound 422]	8.19	
Cc1cc(-c2ccc3[nH]ccc3c2)c(C)cc1/C=C(\Cl)C(=O)N[C@H](C)C(=O)O [Compound 299]	8.02	
CC/C(=C\c1c(C)c(F)c(-c2ccc(NC(C)C)cc2)c(C)c1F)C(=O)N[C@H](C)C(=O)O [Compound 495]		IC50 (Human lymphocyte): 0.041 µg/mL; PCA (anti-OVA IgE antibody): 4.7
CC/C(=C\c1c(C)c(OC)c(-c2ccc(NC(C)C)cc2)c(C)c1OC)C(=O)NC(C)C [Compound 530]	8.01	
CO/C(=C\c1cc(C)c(-c2ccc(NC(C)C)cc2F)cc1C)C(=O)NC(C)C [Compound 292]	8.56	
CC/C(=C\c1cc(C)c(-c2ccc(NC(C)C)cc2F)cc1C)C(=O)NC1CCCC1 [Compound 321]	8.19	
COc1cc(-c2ccc(NCc3ccco3)cc2F)c(OC)cc1/C=C(\C)C(=O)NC1CC1 [Compound 28]	8.14	
C/C(=C\c1c(C)c(C)c(-c2ccc(NC3CCCC3)cc2)c(C)c1C)C(=O)NC1CCCC1 [Compound 463]	8.04	
C/C(=C\c1cc(C)c(-c2ccc(NCc3ccco3)cc2F)cc1C)C(=O)NC(C)C [Compound 158]	8.15	
CC(C)=CCNc1ccc(-c2cc(C)c(/C=C(\C)C(=O)NC(C)C)cc2C)c(F)c1 [Compound 116]	8.44	
C/C(=C\c1c(C)c(C)c(-c2ccc3[nH]ccc3c2)c(C)c1C)C(=O)NC(C)C [Compound 427]	7.88	
COc1cc(-c2ccc(NC(C)C)cc2F)c(OC)cc1/C=C(\C)C(=O)NC1CC1 [Compound 24]	8.12	
C/C(=C\c1c(C)c(C)c(-c2ccc(NC3CCCC3)cc2)c(C)c1C)C(=O)NC1CC1 [Compound 426]	9.00	
C/C(=C\c1cc(C)c(-c2ccc3[nH]c(C)cc3c2)cc1C)C(=O)NC(C)C [Compound 383]	7.87	
COC(=O)[C@@H](C)NC(=O)/C(C)=C/c1cc(C)c(-c2ccc(NC(C)C)cc2F)cc1C [Compound 348]	8.21	
CC/C(=C\c1cc(C)c(-c2ccc(NC3CCCC3)cc2F)cc1C)C(=O)NC1CCCCC1 [Compound 325]	7.99	
COc1c(C)c(-c2ccc(NC(C)C)cc2)c(OC)c(C)c1/C=C(\C)C(=O)NC1CCCC1 [Compound 528]	8.48	
CC/C(=C\c1cc(C)c(-c2ccc(NCc3ccco3)cc2)cc1C)C(=O)NC1CCCC1 [Compound 309]	8.39	

Compound	pIC50 [1]	also measured
C/C(=C\c1cc(C)c(-c2ccc(NC3CCCC3)cc2)cc1C)C(=O)NC(C)(C)C [Compound 414]	8.05	
CC/C(=C\c1cc(C)c(-c2ccc(NC(C)C)cc2F)cc1C)C(=O)NC1CC1 [Compound 165]	7.99	
C/C(=C\c1c(C)c(C)c(-c2ccc(NC(C)C)cc2)c(C)c1C)C(=O)NC1CC1 [Compound 424]	8.59	
C/C(=C\c1c(C)c(C)c(-c2ccc(NCc3ccco3)cc2)c(C)c1C)C(=O)NC1CC1 [Compound 425]	9.04	
COc1c(C)c(-c2ccc(NC3CCCC3)cc2)c(OC)c(C)c1/C=C(\C)C(=O)NC1CCCC1 [Compound 536]	8.08	
Cc1c(F)c(-c2ccc(NC3CCCC3)cc2)c(C)c(F)c1/C=C(\F)C(=O)NC(C)C [Compound 518]	8.14	
CC/C(=C\c1cc(C)c(-c2ccc(NC3CCCC3)cc2F)cc1C)C(=O)NC1CC1 [Compound 173]	8.15	
C/C(=C\c1c(C)c(C)c(-c2ccc(NCc3ccco3)cc2)c(C)c1C)C(=O)NC(C)C [Compound 418]	8.55	
C/C(=C\c1cc(C)c(-c2cccc3[nH]ccc23)cc1C)C(=O)NC1CC1 [Compound 281]	8.28	
C/C(=C\c1c(C)c(F)c(-c2ccc(NC(C)C)cc2)c(C)c1F)C(=O)NC1CC1 [Compound 488]	8.00	
Cc1cc(-c2cc(O)c3[nH]ccc3c2)c(C)cc1/C=C(\Cl)C(=O)NC(C)C [Compound 267]	8.14	
C/C(=C\c1c(C)c(C)c(-c2ccc(NC3CCCC3)cc2)c(C)c1C)C(=O)NC(C)C [Compound 416]	8.58	
C/C(=C\c1cc(C)c(-c2ccc(NCc3ccco3)cc2F)cc1C)C(=O)NC1CCCC1 [Compound 334]	8.61	
COc1cc(-c2ccc(NCc3ccco3)cc2F)c(OC)cc1/C=C(/F)C(=O)NC(C)C [Compound 42]	8.00	
CC/C(=C\c1cc(C)c(-c2ccc(NC3CCCC3)cc2)cc1C)C(=O)NC1CCCC1 [Compound 313]	7.95	
C/C(=C\c1cc(C)c(-c2ccc(NC(C)C)cc2F)cc1C)C(=O)NC1CC1 [Compound 154]	8.10	
C/C(=C\c1c(C)c(C)c(-c2ccc(NC(C)C)cc2)c(C)c1C)C(=O)NC1CCCC1 [Compound 434]	8.62	
Cc1cc(-c2cc(O)c3[nH]ccc3c2)c(C)cc1/C=C(\Cl)C(=O)NC1CC1 [Compound 268]	8.24	
CC/C(=C\c1cc(C)c(-c2ccc(NC3CCCC3)cc2F)cc1C)C(=O)NC1CCCC1 [Compound 324]	8.33	
COc1cc(-c2ccc(NCc3ccco3)cc2F)c(OC)cc1/C=C(/F)C(=O)NC1CC1 [Compound 41]	8.09	
COc1c(C)c(-c2ccc(NCC=C(C)C)cc2)c(OC)c(C)c1/C=C(\C)C(=O)NC1CCCC1 [Compound 575]	8.02	
COc1c(C)c(-c2ccc(NCC=C(C)C)cc2)c(OC)c(C)c1/C=C(\C)C(=O)NC(C)C [Compound 574]	8.03	
